The term IC50 denotes the midpoint of a concentration-inhibition curve.

The test system of assay [1] is human Th17 cells. The assay can be described thus: IL-17 production from human Th17 cells. Type of assay: cell-based. Particulars: 144 h; IL-17A in supernatant by ELISA (MSD) after 6 days, human CD4+ T cells, anti-CD3 + anti-CD28 + cytokine cocktail. The method, then: The activity of compound of the invention can be also be determined by an IL-17 production from human Th17 cells assay. In general, this assay measures blockade of IL-17 production, the signature cytokine of T helper 17 (Th17) cells, by compounds. Purified human CD4+ T cells are stimulated with anti-CD3+anti-CD28 and incubated with a cytokine cocktail that induce their differentiation into Th17 in the absence or presence of various concentrations of compound. After 6 days, IL-17A concentration is measured in the cell culture supernatant with an ELISA kit (MSD).
Preparation of human CD4+ T cells. CD4+ T cells were purified from buffy coats from healthy donors (obtained from Massachusetts General Hospital) by negative selection the following procedure: Mixing 25 mL of blood with 1 mL of Rosette Sep CD4+ T cell enrichment cocktail (StemCell Technologies) followed by application of a layer of 14 mL Ficoll Paque Plus (Amersham GE Healthcare) and subsequent centrifugation at 1200 g for 20 min at room temperature. The Ficoll layer was then harvested and washed with phosphate saline buffer containing 2% (v/v) fetal bovine serum and cells were resuspended with RPMI medium containing 10% (v/v) fetal bovine serum and 10% (v/v) DMSO, frozen and kept in LN2 until used.
On the first day of the assay, a vial containing 10^7 CD4+ T cells is thawed rapidly in 37° C. water bath, immediately transferred into 20 mL X-Vivo 15 medium (Lonza), is spun for 6 min at 300×g, the supernatant is discarded, and the resulting pellet is re-suspended at 10^6 cells/mL in […] fresh X-Vivo 15 medium, followed by storage overnight in a tissue culture vessel in a humidified chamber at 37° C. and 5% CO2. Serial dilutions of compounds of the invention are prepared at 10× final concentration in X-Vivo15 medium containing 3% (v/v) DMSO.
On the second day of the assay, a 384-well tissue culture plate was coated with 10 μg/mL anti-hCD3 (eBioscience) at 50 μL/well. After 2 hr at 37° C., the supernatant is discarded and the coated plates are kept in a sterile tissue culture hood.
Cytokine plus anti-CD28 cocktail is prepared by mixing 25 ng/mL hIL-6 (Peprotech), 5 ng/mL hTGFbeta1 (Peprotech), 12.5 ng/mL IL-1beta (Peprotech), 25 ng/mL hIL-21, 25 ng/mL hIL-23 (R&D Systems), and 1 ug/mL anti-hCD28 (eBioscience) in X-Vivo 15 medium. The cytokine plus anti-CD28 cocktail with CD4+ cells is prepared such that the cocktail is diluted 10-fold and cell density is 0.22×10^6/mL. The mixture is incubated 1 hr at 37° C.
90 μL (20,000 cells) dispensed per well in the anti-hCD3 coated plate prepared as noted above.
10 μL 10× compound is added per well (final DMSO=0.3%) from the compound plate that was previously prepared, followed by 6 days of incubation in a tissue culture vessel in a humidified chamber at 37° C. and 5% CO2.
On day six of the assay, production of IL-17A in 10 μL of the supernatant is determined by sandwich ELISA using 384w hIL17 MSD plates following the manufacturer's protocol. Measurement is carried out in a Sector Imager 6000 by the same manufacturer. Signal units from the instrument are converted to pg/mL using a calibration curve with known amounts of IL-17A. IC50 values of test compounds (Table 2) are determined by the non-linear regression analysis of dose response curves.
On the technique in general: ELISA stands for enzyme-linked immunosorbent assay.

Assay [2] addresses T1, RORC2 ligand binding domain (6-His-RORC2 LBD) (Homo sapiens, UniProt P51449).
T1 construct: made in house; host or cells: E. coli
T1 sequence (P51449 269-508 limits assumed): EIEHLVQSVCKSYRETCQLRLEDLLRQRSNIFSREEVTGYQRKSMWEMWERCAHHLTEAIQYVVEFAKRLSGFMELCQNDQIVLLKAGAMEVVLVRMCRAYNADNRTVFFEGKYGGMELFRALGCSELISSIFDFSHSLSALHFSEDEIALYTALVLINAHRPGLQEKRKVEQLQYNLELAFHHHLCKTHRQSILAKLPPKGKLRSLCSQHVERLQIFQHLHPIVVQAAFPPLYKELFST
The assay can be described thus: Co-activator recruitment by TR-FRET. Type of assay: biochemical. The settings on record: 6.3 nM RORC2 LBD, 200 nM SRC1-2 coactivator peptide, 3 hr room temperature. The source says: The activity of compound of the invention can be determined by a co-activator recruitment by TR-FRET (time-resolved fluorescence resonance energy transfer) assay. In general, the assay is based on the interaction between N-terminally Six-Histidine-tagged-RORC2 ligand binding domain (6-His-RORC2 LBD), expressed in E. coli and purified by affinity chromatography, and biotin-coactivator peptide SRC1-2 (biotin-aminohexanoic acid-[…]-NH2; SEQ ID NO: 1) containing the LXXLL consensus domain which is responsible for receptor binding. This interaction is detected by addition of Europium labeled-anti-His antibody (Ex. 337 nm, Em. 620 nm, which binds to 6His) and Streptavidin-APC (Ex. 620 nm, Em. 665 nm, which binds to biotin). When receptor and coactivator are bound to each other, upon shining light at 337 nm on the sample, the Europium emits fluorescence that excites APC due to close proximity (FRET) and this signal is measured at 665 nm. Due to the long lasting fluorescence emission of Europium, the non-specific, short-lived fluorescence is time-resolved (TR) from the fluorescence of interest. Inhibitors of the interaction of receptor and coactivator peptide are detected by a decrease in TR-FRET signal.
Specifically, in one embodiment the aforementioned assay was performed as outlined below. The assay was carried out in black polystyrene. 384-well plates in a total assay volume of 50.5 μL. The assay buffer contained 50 mM TRIS-HCL pH 7.5, 1 mM NaCl, 2 mM MgCl2, 0.5 mg/mL bovine serum albumin, and 5 mM dithiothreitol. The final concentration of reagents was 6.3 nM RORC2 LBD, 200 nM SRC1-2, 50 nM streptavidin APC, 1 nM Europium-labeled anti-His antibody, and varying concentrations of compounds such that final concentration of DMSO is 1% (v/v). The assay steps were: (1) dispensing […] compound at 100× final concentration in DMSO (test wells) or DMSO only (control wells for no inhibition); and (2) dispensing 50 μL mixture of the other assay components including receptor (test wells) or excluding receptor (control wells for maximal inhibition).
Assay mixtures were incubated are room temperature for 3 hr and read in EnVision 2100 Multilabel Reader (PerkinElmer Life Sciences) at Excitation Filter 320, Emission Europium Filter 615, Emission APC Filter 665, Dichroic Mirror D400/D630.
TR-FRET signal was determined by calculating the ratio of 665 nm by 615 nm and […] values of compounds of the invention (Table 1) were determined by the non-linear regression analysis of dose response curves.

Consider `COc1ccc(C(=O)Nc2cnc3c(c(C4CCN(C(=O)C(C)C)CC4)cn3C)c2OC)cc1C#N` [Example 2, 3-cyano-N-(3-(1-isobutyrylpiperidin-4-yl)-4-methoxy-1-methyl-1H-pyrrolo[2,3-b]pyridin-5-yl)-4-methoxybenzamide], for which the values for the half-maximal inhibitory concentration (IC50) in assay [1] and in assay [2] were 0.0178 µM and 0.0387 µM, respectively.
Regarding `COc1ccc(C(=O)Nc2cnc3c(c(C4CCN(C(=O)[C@@H](C)C(C)(C)C)CC4)cn3C)c2OC)cc1C#N` [Example 3, (S)-3-cyano-4-methoxy-N-(4-methoxy-1-methyl-3-(1-(2,3,3-trimethylbutanoyl)piperidin-4-yl)-1H-pyrrolo[2,3-b]pyridin-5-yl)benzamide], the IC50 in assay [1] turned out to be 0.0064 µM; in assay [2], 0.0046 µM.
On to `COc1ccc(C(=O)Nc2cnc3c(c(C4CCN(C(=O)[C@H](C)C(C)(C)C)CC4)cn3C)c2OC)cc1C#N` [Example 4, (R)-3-cyano-4-methoxy-N-(4-methoxy-1-methyl-3-(1-(2,3,3-trimethylbutanoyl)piperidin-4-yl)-1H-pyrrolo[2,3-b]pyridin-5-yl)benzamide], for which the IC50 in assay [1] worked out at 0.011 µM; in assay [2], 0.0069 µM.
For `COc1c(NC(=O)c2cccc(C#N)c2)cnc2c1c(C1CCN(C(=O)[C@H](C)C(C)(C)C)CC1)cn2C` [Example 5, (R)-3-cyano-N-(4-methoxy-1-methyl-3-(1-(2,3,3-trimethylbutanoyl)piperidin-4-yl)-1H-pyrrolo[2,3-b]pyridin-5-yl)benzamide] the same measures were 0.0106 µM and 0.0061 µM.
The matching figures for `COc1c(NC(=O)c2cccc(C#N)c2)cnc2c1c(C1CCN(C(=O)[C@H](C)C(C)C)CC1)cn2C` [Example 6, (R)-3-cyano-N-(3-(1-(2,3-dimethylbutanoyl)piperidin-4-yl)-4-methoxy-1-methyl-1H-pyrrolo[2,3-b]pyridin-5-yl)benzamide]: 0.0157 µM and 0.0152 µM.
For `COc1c(NC(=O)c2cccc(C#N)c2)cnc2c1c(C1CCN(C(=O)c3cccc4c3CCC4)CC1)cn2C` [Example 7, 3-cyano-N-(3-(1-(2,3-dihydro-1H-indene-4-carbonyl)piperidin-4-yl)-4-methoxy-1-methyl-1H-pyrrolo[2,3-b]pyridin-5-yl)benzamide] the same measures were 0.0283 µM and 0.0047 µM.
For `COc1c(NC(=O)c2cccc(C#N)c2)cnc2c1c(C1CCN(C(=O)C3CCCC3)CC1)cn2C` [Example 8, 3-cyano-N-(3-(1-(cyclopentanecarbonyl)piperidin-4-yl)-4-methoxy-1-methyl-1H-pyrrolo[2,3-b]pyridin-5-yl)benzamide], the figures for the half-inhibitory concentration (IC50) in assay [1] and in assay [2] were 0.0298 µM and 0.0118 µM, respectively.
For `COc1cc(C#N)cc(C(=O)Nc2cnc3c(c(C4CCN(C(=O)C[C@@H](O)C(F)(F)F)CC4)cn3C)c2OC)c1` [Example 9, (R)-3-cyano-5-methoxy-N-(4-methoxy-1-methyl-3-(1-(4,4,4-trifluoro-3-hydroxybutanoyl)piperidin-4-yl)-1H-pyrrolo[2,3-b]pyridin-5-yl)benzamide] the same measures were 0.0771 µM and 0.0562 µM.
As to `COc1c(NC(=O)c2ccc(F)c(C#N)c2)cnc2c1c(C1CCN(C(=O)C3CCCC3)CC1)cn2C` [Example 10, 3-cyano-N-(3-(1-(cyclopentanecarbonyl)piperidin-4-yl)-4-methoxy-1-methyl-1H-pyrrolo[2,3-b]pyridin-5-yl)-4-fluorobenzamide], the IC50 in assay [1] worked out at 0.106 µM; in assay [2], 0.0292 µM.
In the case of `COc1c(NC(=O)c2ccc(C)c(C#N)c2)cnc2c1c(C1CCN(C(=O)C3CCCC3)CC1)cn2C` [Example 11, 3-cyano-N-(3-(1-(cyclopentanecarbonyl)piperidin-4-yl)-4-methoxy-1-methyl-1H-pyrrolo[2,3-b]pyridin-5-yl)-4-methylbenzamide], the IC50 in assay [1] is 0.0507 µM; in assay [2], 0.0178 µM.
For `COc1cc(C#N)cc(C(=O)Nc2cnc3c(c(C4CCN(C(=O)C5CCCC5)CC4)cn3C)c2OC)c1` [Example 12, 3-cyano-N-(3-(1-(cyclopentanecarbonyl)piperidin-4-yl)-4-methoxy-1-methyl-1H-pyrrolo[2,3-b]pyridin-5-yl)-5-methoxybenzamide] the same measures were 0.0598 µM and 0.0202 µM.
The matching figures for `COc1ccc(C(=O)Nc2cnc3c(c(C4CCN(C(=O)C5CCCCC5)CC4)cn3C)c2OC)cc1C#N` [Example 13, 3-cyano-N-(3-(1-(cyclohexanecarbonyl)piperidin-4-yl)-4-methoxy-1-methyl-1H-pyrrolo[2,3-b]pyridin-5-yl)-4-methoxybenzamide]: 0.0095 µM and 0.0154 µM.
For `COc1c(NC(=O)c2cccc(C#N)c2)cnc2c1c([C@@H]1[C@@H]3CC[C@H]1CN(C(=O)[C@H](C)C(C)(C)C)C3)cn2C` [Example 21, 3-cyano-N-(4-methoxy-1-methyl-3-((1R,5S,8R)-3-((R)-2,3,3-trimethylbutanoyl)-3-azabicyclo[3.2.1]octan-8-yl)-1H-pyrrolo[2,3-b]pyridin-5-yl)benzamide], the IC50 in assay [1] was 0.0213 µM.
On to `COc1ccc(C(=O)Nc2cnc3c(c([C@@H]4[C@@H]5CC[C@H]4CN(C(=O)C4CCCC4)C5)cn3C)c2OC)cc1C#N` [Example 22, 3-cyano-N-(3-((1R,5S,8r)-3-(cyclopentanecarbonyl)-3-azabicyclo[3.2.1]octan-8-yl)-4-methoxy-1-methyl-1H-pyrrolo[2,3-b]pyridin-5-yl)-4-methoxybenzamide], for which, in assay [1], the half-maximal inhibitory concentration (IC50) was 0.0227 µM.
